Measured values as given in patent US5650411A, “Substituted azolone derivatives” (Janssen Pharmaceutica N.V., priority 1993, dated 1997).
≈ marks a conversion by molar mass, not a printed value.

What follows are molecules tested on Helicobacter pylori (assay: Minimal inhibitory concentration (MIC) against Helicobacter pylori, urease read-out, 5 clinical strains). Conditions: 5 H. pylori clinical strains, 10% blood agar, 48 h at 37° C., microaerophilic, read-out: MIC.
Assay type: cell-based
Method: The anti-Helicobacter activity of the subject compounds was assessed by the following in-vitro test procedure.
The activity of test compounds against Helicobacter pylori was determined against a standard set of 5 H. priori strains obtained from clinical material. Minimal inhibitory concentrations (MICs) were determined by measuring the activity of H. pylori urease after treatment of growing cultures of the bacteria with the antimicrobial agents.
The test compounds were dissolved in DMSO at a concentration of 10^-3 M. A dilution to 10^-4 M in DMSO was also prepared. 10 μl volumes of these solutions were pipetted in the wells of Repli-Dishes (®Sterilin). Wells containing DMSO alone were included as controls in each Repli-Dish. Ampicillin ((+)-6-[(2-amino-2-phenylacetyl)amino]-3,3-dimethyl-7-oxo-4-thia-1-azabicyclo[3.2.0]heptane-2-carboxylic acid trihydrate) and metronidazole (2-methyl-5-nitro-1H-imidazol-1-ethanol) were included as reference compounds in each batch of tests. (These compounds were tested at final concentrations of 10^-5, 10^-6, 10^-7 and 10^-8 M). Test plates were stored at 4° C. until used. The five isolates of H. pylori were maintained by subculture on 10% blood agar every 2 or 3 days. The bacteria were grown at 37° C. under an atmosphere containing 5% oxygen, 10% CO2 and 85% nitrogen. Suspensions of Helicobacter pylori for inoculum were prepared in Brain-heart infusion broth and adjusted to an absorbance of 1.5±0.3 at […].
Freshly prepared 10% blood agar held at 45° C. was added in 1 ml volumes to the wells of the test plates, thus diluting the test compounds to 10^-5 and 10^-6 M. The medium was allowed to cool, then 10 μl volumes of bacterial suspension were pipetted on the agar surface. The plates were incubated for 48 h at 37° C. under the microaerophilic atmosphere described above. […] After the 48 h of incubation, 1 ml volumes of urease broth were gently added to each Repli-Dish well and the plates were incubated at 37° C. for 2 h. 100 μl samples of fluid from each well were then pipetted into the wells of 96-place microdilution plates. A purple colour was interpreted as growth, yellow-orange as no growth of H. pylori. By this means a clear end-point was obtained, from which the inhibitory effects could be determined.
Table 1 summarizes the MIC values determined by the above procedure for a subset of the subject compounds.
For CCC(C(=O)c1ccc(Cl)cc1)n1ncn(-c2ccc(N3CCN(c4ccc(OC)cc4)CC3)cc2)c1=O (single isomer, unassigned; (+)) [compound 31, (+)-(A)-2-[1-(4-chlorobenzoyl)propyl]-2,4-dihydro-4-[4-[4-(4-methoxyphenyl)-1-piperazinyl]phenyl]-3H-1,2,4-triazol-3-one], the MIC was 1 µM (≈ 0.532 µg/mL).
Cc1cc(N2CCN(c3ccc(-n4c(C)nn([C@H](C)[C@H](O)c5ccc(Cl)c(Cl)c5)c4=O)cc3)CC2)cc(C)c1O (relative stereo) [compound 10, (±)-(R*,R*)-2-[2-(3,4-dichlorophenyl)-2-hydroxy-1-methylethyl]-2,4-dihydro-4-[4-[4-(4-hydroxy-3,5-dimethylphenyl)-1-piperazinyl]phenyl]-5-methyl-3H-1,2,4-triazol-3-one hemihydrate] was tested, and the MIC was 1 µM.
CC[C@H]([C@H](O)c1ccc(Cl)cc1)n1ncn(-c2ccc(N3CCN(c4ccc(OC)c(OC)c4)CC3)nc2)c1=O (relative stereo) [compound 49, (±)-(R*,R*)-2-[1-[(4-chlorophenyl)hydroxymethyl]propyl]-4-[6-[4-(3,4-dimethoxy-phenyl)-1-piperazinyl]-3-pyridinyl]-2,4-dihydro-3H-1,2,4-triazol-3-one] was tested, and the MIC was 0.01 µM (≈ 0.00565 µg/mL).
Cc1nn(C(C)C(O)c2ccc(Br)cc2)c(=O)n1-c1ccc(N2CCN(c3ccc(O)cc3)CC2)nc1 (centres unmarked) [compound 23, 2-[2-(4-bromophenyl)-2-hydroxy-1-methylethyl]-2,4-dihydro-4-[6-[4-(4-hydroxy-phenyl)-1-piperazinyl]-3-pyridinyl]-5-methyl-3H-1,2,4-triazol-3-one] was tested, and the MIC was 1 µM (≈ 0.565 µg/mL).
CCC(C(=O)c1ccc(Cl)cc1)n1ncn(-c2cnc(N3CCN(c4ccc(O)cc4)CC3)nc2)c1=O (racemic) [compound 26, (±)-2-[1-(4-chlorobenzoyl)propyl]-2,4-dihydro-4-[2-[4-(4-hydroxyphenyl)-1-piperazinyl]-5-pyrimidinyl]-3H-1,2,4-triazol-3-one] was tested, and the MIC was 0.1 µM (≈ 0.052 µg/mL).
CCC(C)(C(O)c1ccc(Br)cc1)n1nc(C)n(-c2ccc(N3CCN(c4ccc(O)cc4)CC3)cc2)c1=O (racemic) [compound 13, (±)-2-[1-[(4-bromophenyl)hydroxymethyl]-1-methylpropyl]-2,4-dihydro-4-[4-[4-(4-hydroxyphenyl)-1-piperazinyl]phenyl]-5-methyl-3H-1,2,4-triazol-3-one] gave an MIC of 0.1 µM (≈ 0.0593 µg/mL).
Work on CCC(C(=O)c1ccc(Cl)cc1)n1ncn(-c2cnc(N3CCN(c4ccc(OC)cc4)CC3)nc2)c1=O (racemic) [compound 8, (±)-2-[1-(4-chlorobenzoyl)propyl]-2,4-dihydro-4-[2-[4-(4-methoxyphenyl)-1-piperazinyl]-5-pyrimidinyl]-3H-1,2,4-triazol-3-one] yielded an MIC of 0.1 µM (≈ 0.0534 µg/mL).
In the case of CCC(C(=O)c1ccc(Cl)cc1)n1ncn(-c2ccc(N3CCN(c4cccc(O)c4)CC3)nc2)c1=O (racemic) [compound 28, (±)-2-[1-(4-chlorobenzoyl)propyl]-2,4-dihydro-4-[6-[4-(3-hydroxyphenyl)-1-piperazinyl]-3-pyridinyl]-3H-1,2,4-triazol-3-one], the MIC is reported as 0.01 µM (≈ 0.00519 µg/mL).
COc1ccc(C(=O)C(C)n2ncn(-c3ccc(N4CCN(c5ccc(O)cc5)CC4)cc3)c2=O)cc1 (centres unmarked) [compound 35, 2,4-dihydro-4-[4-[4-(4-hydroxyphenyl)-1-piperazinyl]phenyl]-2-[1-(4-methoxy-benzoyl)ethyl]-3H-1,2,4-triazol-3-one] was tested, and the MIC was 10 µM (≈ 5 µg/mL).
For CCC(C(=O)c1ccc(Cl)cc1)n1ncn(-c2ccc(N3CCN(c4ccc(OC)cn4)CC3)nc2)c1=O (racemic) [compound 37, (±)-2-[1-(4-chlorobenzoyl)propyl]-2,4-dihydro-4-[6-[4-(5-methoxy-2-pyridinyl) -1-piperazinyl]-3-pyridinyl]-3H-1,2,4-triazol-3-one], the MIC was 0.1 µM (≈ 0.0534 µg/mL).
CC[C@H]([C@H](O)c1ccc(Cl)cc1)n1ncn(-c2ccc(N3CCN(c4ccc(OC)cn4)CC3)cc2)c1=O (relative stereo) [compound 15, (±)-(RR,SS)-2-[1-[(4-chlorophenyl)hydroxymethyl]propyl]-2,4-dihydro-4-[4-[4-(5-methoxy-2-pyridinyl)-1-piperazinyl]phenyl]-3H-1,2,4-triazol-3-one] gave an MIC of 0.1 µM (≈ 0.0535 µg/mL).
With Cc1cn(C(C)C(=O)c2ccc(Cl)cc2)c(=O)n1-c1ccc(N2CCN(c3ccc(O)cc3)CC2)cc1 (centres unmarked) [compound 30, 1-[1-(4-chlorobenzoyl)ethyl]-1,3-dihydro-3-[4-[4-(4-hydroxyphenyl)-1-piperazinyl]phenyl]-4-methyl-2H-imidazol-2-one] the MIC was 1 µM (≈ 0.517 µg/mL).
Cc1nn(C(C)(C)C(O)c2ccc(Br)cc2)c(=O)n1-c1ccc(N2CCN(c3ccc(O)cc3)CC2)cc1 (racemic) [compound 22, (±)-2-[2-(4-bromophenyl)-2-hydroxy-1,1-dimethylethyl]-2,4-dihydro-4-[4-[4-(4-hydroxyphenyl)-1-piperazinyl]phenyl]-5-methyl-3H-1,2,4-triazol-3-one] showed an MIC of 1 µM (≈ 0.579 µg/mL).
CCC(C(=O)c1ccc(Cl)cc1)n1ncn(-c2ccc(N3CCN(c4cccc(OC)c4)CC3)nc2)c1=O (racemic) [compound 4, (±)-2-[1-(4-chlorobenzoyl)propyl]-4-[6-[4-(3-methoxyphenyl)-1-piperazinyl]-3-pyridinyl]-2,4-dihydro-3H-1,2,4-triazol-3-one] showed an MIC of 0.01 µM (≈ 0.00533 µg/mL).
CCC(C(=O)c1ccc(Cl)cc1)n1ncn(-c2ccc(N3CCN(c4ccc(O)cc4)CC3)nc2)c1=O (racemic) [compound 25, (±)-2-[1-(4-chlorobenzoyl)propyl]-2,4-dihydro-4-[6-[4-(4-hydroxyphenyl)-1-piperazinyl]-3-pyridinyl]-3H-1,2,4-triazol-3-one] gave an MIC of 0.1 µM (≈ 0.0519 µg/mL).
CCC(C(=O)c1ccc(Cl)cc1)n1ncn(-c2ccc(N3CCC(c4ccc(OC)c(OC)c4)CC3)nc2)c1=O (racemic) [compound 45, (±)-2-[1-(4-chlorobenzoyl)propyl]-4-[6-[4-(3,4-dimethoxyphenyl)-1-piperidinyl]-3-pyridinyl]-2,4-dihydxo-3H-1,2,4-triazol-3-one] was tested, and the MIC was 0.01 µM (≈ 0.00562 µg/mL).
Cc1nn(CC(O)c2ccc(OC(F)(F)F)cc2)c(=O)n1-c1ccc(N2CCN(c3ccc(O)cc3)CC2)cc1 (racemic) [compound 36, (±)-2,4-dihydro-4-[4-[4-(4-hydroxyphenyl)-1-piperazinyl]phenyl]-2-[2-hydroxy-2-[4-(trifluoromethoxy)-phenyl]ethyl]-5-methyl-3H-1,2,4-triazol-3-one] gave an MIC of 10 µM (≈ 5.56 µg/mL).
Molecule Cc1cn(C(C)C(O)c2ccc(Cl)cc2)c(=O)n1-c1ccc(N2CCN(c3ccc(O)cc3)CC2)cc1 (centres unmarked) [compound 11, 1-[2-(4-chlorophenyl)-2-hydroxy-1-methylethyl]-1,3-dihydro-3-[4-[4-(4-hydroxyphenyl)-1-piperazinyl]phenyl]-4-methyl-2H-imidazol-2-one] has an MIC of 1 µM (≈ 0.519 µg/mL).
CCC(C(=O)c1ccc(Cl)cc1)n1ncn(-c2ccc(N3CCN(c4ccccc4O)CC3)nc2)c1=O (racemic) [compound 29, (±)-2-[1-(4-chlorobenzoyl)propyl]-2,4-dihydro-4-[6-[4-(2-hydroxyphenyl)-1-piperazinyl]-3-pyridinyl]-3H-1,2,4-triazol-3-one] showed an MIC of 0.1 µM (≈ 0.0519 µg/mL).
Cc1ccc(C(O)C(C)n2ncn(-c3ccc(N4CCN(c5ccc(O)cc5)CC4)cc3)c2=O)cc1 (centres unmarked) [compound 33, 2,4-dihydro-2-[2-hydroxy-1-methyl-2-(4-methylphenyl)ethyl]-4-[4-[4-(4-hydroxyphenyl)-1-piperazinyl]phenyl]-3H-1,2,4-triazol-3-one] showed an MIC of 1 µM (≈ 0.486 µg/mL).
In the case of CC[C@H]([C@H](O)c1ccc(Cl)cc1)n1ncn(-c2ccc(N3CCN(c4ccccc4OC)CC3)nc2)c1=O (relative stereo) [compound 17, (±)-(R*,R*)-2-[1-[(4-chlorophenyl)hydroxymethyl]propyl]-2,4-dihydro-4-[6-[4-(2-methoxyphenyl)-1-piperazinyl]-3-pyridinyl]-3H-1,2,4-triazol-3-one], the MIC is reported as 0.1 µM (≈ 0.0535 µg/mL).
With CC[C@H]([C@H](O)c1ccc(Cl)cc1)n1ccn(-c2ccc(N3CCN(c4ccc(OC)cc4)CC3)nc2)c1=O (relative stereo) [compound 38, (±)-(R*,R*)-1-[1-[(4-chlorophenyl)hydroxymethyl]propyl]-1,3-dihydro-3-[6-[4-(4-methoxyphenyl)-1-piperazinyl]-3-pyridinyl]-2H-imidazol-2-one] the MIC was 0.1 µM (≈ 0.0534 µg/mL).

Same assay, conditions: 48 h
With CC(C(=O)c1ccc(Br)cc1)n1ncn(-c2ccc(N3CCN(c4ccc(O[Si](C)(C)C(C)(C)C)cc4)CC3)cc2)c1=O (centres unmarked) [compound 47, 2-[1-(4-bromobenzoyl)ethyl]-4-[4-[4-[4-[[(1,1-dimethylethyl)dimethylsilyl]oxy]phenyl]-1-piperazinyl]phenyl]-2,4-dihydro-3H-1,2,4-triazol-3-one] the MIC was 1 µM (≈ 0.663 µg/mL).
